Laboratory results taken from ChEMBL document CHEMBL2424635, “Discovery of novel histidine-derived lipo-amino acids: applied in the synthesis of ultra-short antimicrobial peptidomimetics having potent antimicrobial activity, salt resistance and protease stability” (Eur J Med Chem, 2013).
Activity calls are given as the source filed them.

Tests used:
[1] = system: Staphylococcus aureus; test: Antibacterial activity against Staphylococcus aureus KCTC 1621 assessed as growth inhibition after 18 to 20 hrs by broth microdilution method in presence of NaCl; format: functional
[2] = system: Escherichia coli; test: Antibacterial activity against Escherichia coli KCTC 1682 assessed as growth inhibition at 50 ug/ml after 18 to 20 hrs by broth microdilution method in presence of trypsin; format: functional, organism-based
[3] = system: Staphylococcus aureus; test: Antibacterial activity against methicillin-resistant Staphylococcus aureus CCARM 3089 assessed as growth inhibition after 18 to 20 hrs by broth microdilution method; format: functional
[4] = system: Salmonella typhimurium; test: Antibacterial activity against Salmonella typhimurium KCTC 1926 assessed as growth inhibition after 18 to 20 hrs by broth microdilution method in presence of NaCl; format: functional, Salmonella enterica subsp. enterica serovar Typhimurium; settings: Salmonella enterica
[5] = system: Bacillus subtilis; test: Antibacterial activity against Bacillus subtilis KCTC 3068 assessed as growth inhibition after 18 to 20 hrs by broth microdilution method; format: functional
[6] = Hemolytic activity in human RBC assessed as hemoglobin release after 1 hr; format: ADME, cell-based, Erythrocyte; settings: red blood cells (RBC)
[7] = system: Escherichia coli; test: Antibacterial activity against Escherichia coli KCTC 1682 assessed as growth inhibition after 18 to 20 hrs by broth microdilution method; format: functional
[8] = system: Staphylococcus epidermidis; test: Antibacterial activity against Staphylococcus epidermidis KCTC 1917 assessed as growth inhibition after 18 to 20 hrs by broth microdilution method in presence of NaCl; format: functional
[9] = system: Staphylococcus epidermidis; test: Antibacterial activity against Staphylococcus epidermidis KCTC 1917 assessed as growth inhibition after 18 to 20 hrs by broth microdilution method; format: functional
[10] = system: Bacillus subtilis; test: Antibacterial activity against Bacillus subtilis KCTC 3068 assessed as growth inhibition after 18 to 20 hrs by broth microdilution method in presence of NaCl; format: functional
[11] = system: Salmonella typhimurium; test: Antibacterial activity against Salmonella typhimurium KCTC 1926 assessed as growth inhibition after 18 to 20 hrs by broth microdilution method; format: functional, Salmonella enterica subsp. enterica serovar Typhimurium; settings: Salmonella enterica
[12] = system: Escherichia coli; test: Antibacterial activity against Escherichia coli KCTC 1682 assessed as growth inhibition after 18 to 20 hrs by broth microdilution method in presence of NaCl; format: functional
[13] = system: Staphylococcus aureus; test: Antibacterial activity against Staphylococcus aureus KCTC 1621 assessed as growth inhibition after 18 to 20 hrs by broth microdilution method; format: functional
[14] = system: Staphylococcus aureus; test: Antibacterial activity against methicillin-resistant Staphylococcus aureus CCARM 3090 assessed as growth inhibition after 18 to 20 hrs by broth microdilution method; format: functional
[15] = system: Staphylococcus aureus; test: Antibacterial activity against Staphylococcus aureus KCTC 1621 assessed as growth inhibition at 50 ug/ml after 18 to 20 hrs by broth microdilution method in presence of trypsin; format: functional, organism-based
[16] = system: Pseudomonas aeruginosa; test: Antibacterial activity against Pseudomonas aeruginosa KCTC 1637 assessed as growth inhibition after 18 to 20 hrs by broth microdilution method in presence of NaCl; format: functional
[17] = system: Pseudomonas aeruginosa; test: Antibacterial activity against Pseudomonas aeruginosa KCTC 1637 assessed as growth inhibition after 18 to 20 hrs by broth microdilution method; format: functional
[18] = system: Staphylococcus aureus; test: Antibacterial activity against methicillin-resistant Staphylococcus aureus CCARM 3095 assessed as growth inhibition after 18 to 20 hrs by broth microdilution method; format: functional
[19] = system: Staphylococcus aureus; test: Antibacterial activity against Staphylococcus aureus KCTC 1621 assessed as disruption of cellular structure at 3 x MIC after 1 hr by transmission electron microscopic analysis; format: functional, organism-based
[20] = system: Escherichia coli; test: Antibacterial activity against Escherichia coli KCTC 1682 assessed as disruption of cellular structure at 3 x MIC after 1 hr by transmission electron microscopic analysis; format: functional, organism-based

CCCCCCCCCCn1c[n+](CCCCCCCCCC)cc1C[C@H](N)C(=O)N[C@@H](CCCNC(=N)N)C(N)=O
4 µg/mL: MIC [7] | MIC [11] | MIC [14]
8 µg/mL: MIC [4] | MIC [12] | MIC [16] | MIC [17]
49 µg/mL: HC50 at 1 h [6]
active: growth inhibition (GI) [2] | growth inhibition (GI) [15]
2 µg/mL: MIC [1] | MIC [3] | MIC [5] | MIC [8] | MIC [9] | MIC [10] | MIC [13] | MIC [18]

CCCCCCCCCCCCCCn1c[n+](CCCCCCCCCCCCCC)cc1C[C@H](NC(=O)[C@@H](N)CCCNC(=N)N)C(=O)N[C@@H](CCCNC(=N)N)C(N)=O
> 256 µg/mL: HC50 at 1 h [6]
> 64 µg/mL: MIC [1] | MIC [3] | MIC [4] | MIC [5] | MIC [7] | MIC [8] | MIC [9] | MIC [10] | MIC [11] | MIC [12] | MIC [13] | MIC [14] | MIC [16] | MIC [17] | MIC [18]

CCCCCCCCCCn1c[n+](CCCCCCCCCC)cc1C[C@H](NC(=O)[C@@H](N)CCCNC(=N)N)C(=O)N[C@@H](CCCNC(=N)N)C(N)=O
8 µg/mL: MIC [3] | MIC [7] | MIC [11] | MIC [16] | MIC [17]
121 µg/mL: HC50 at 1 h [6]
active: growth inhibition (GI) [2] | Activity [19] | growth inhibition (GI) [15] | Activity [20]
16 µg/mL: MIC [4] | MIC [12]
4 µg/mL: MIC [1] | MIC [5] | MIC [8] | MIC [9] | MIC [10] | MIC [13] | MIC [14] | MIC [18]

CCCCCCCCCCn1c[n+](CCCCCCCCCC)cc1C[C@H](N)C(=O)N[C@@H](CCCNC(=N)N)C(=O)N[C@@H](CCCNC(=N)N)C(N)=O
8 µg/mL: MIC [1] | MIC [7] | MIC [11] | MIC [16] | MIC [17]
4 µg/mL: MIC [3] | MIC [5] | MIC [8] | MIC [9] | MIC [10] | MIC [13] | MIC [14] | MIC [18]
110 µg/mL: HC50 at 1 h [6]
active: growth inhibition (GI) [2] | Activity [19] | growth inhibition (GI) [15] | Activity [20]
16 µg/mL: MIC [4] | MIC [12]

CCCCCCC/C=C/Cn1cncc1C[C@H](NC(=O)[C@@H](N)CCCNC(=N)N)C(=O)N[C@@H](CCCNC(=N)N)C(N)=O
> 256 µg/mL: HC50 at 1 h [6]
64 µg/mL: MIC [4] | MIC [8] | MIC [11] | MIC [16]
32 µg/mL: MIC [1] | MIC [7] | MIC [17]
4 µg/mL: MIC [5] | MIC [9]
8 µg/mL: MIC [13]
> 64 µg/mL: MIC [12]
16 µg/mL: MIC [3] | MIC [10] | MIC [14] | MIC [18]
